Source: publication PMC6979384, “Characterization of the plant homeodomain (PHD) reader family for their histone tail interactions” (Epigenetics & Chromatin, 2020)

How the values were obtained:
Assay in all cases: Histone peptide microarray
Assay type in all cases: binding, human
[1] = test system: AIRE (PP); details: GST-tagged AIRE (PP); histone peptide array; arrays performed twice, n of 4
Outline: (§1)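 Binding read as mean relative signal from 4 replicates; microarray held 293 synthetic histone peptides with single or combinatorial PTMs. Each GST-tagged PHD reader was applied at 0.5 μM using the optimized Petell protocol.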

[2] = test system: BAZ2B; details: GST-tagged BAZ2B; histone peptide array; arrays performed twice, n of 4
Outline: as §1

[3] = test system: BPTF (PB); details: GST-tagged BPTF (PB = PHD + Bromodomain); histone peptide array; arrays performed twice, n of 4
Outline: as §1

[4] = test system: CHD4 (PPCC); details: GST-tagged CHD4 (PPCC = Dual PHD + Dual Chromodomain); histone peptide array; arrays performed twice, n of 4
Outline: as §1

[5] = test system: CHD5 (PCC); details: GST-tagged CHD5 (PCC = PHD + Dual Chromodomain); histone peptide array; arrays performed twice, n of 4
Outline: as §1

[6] = test system: CHD5 (PPCC); details: GST-tagged CHD5 (PPCC = Dual PHD + Dual Chromodomain); histone peptide array; arrays performed twice, n of 4
Outline: as §1

[7] = test system: DIDO1; details: GST-tagged DIDO1; histone peptide array; arrays performed twice, n of 4
Outline: as §1

[8] = test system: DPF2 (PPC2W2); details: GST-tagged DPF2 (PPC2W2 = Dual PHD + C2W2-type Zn-finger); histone peptide array; arrays performed twice, n of 4
Outline: as §1

[9] = test system: ING1; details: GST-tagged ING1; histone peptide array; arrays performed twice, n of 4
Outline: as §1

[10] = test system: ING2; details: GST-tagged ING2; histone peptide array; arrays performed twice, n of 4
Outline: as §1

[11] = test system: ING3; details: GST-tagged ING3; histone peptide array; arrays performed twice, n of 4
Outline: as §1

[12] = test system: ING4; details: GST-tagged ING4; histone peptide array; arrays performed twice, n of 4
Outline: as §1

[13] = test system: ING5; details: GST-tagged ING5; histone peptide array; arrays performed twice, n of 4
Outline: as §1

[14] = test system: KDM4C (TTP); details: GST-tagged KDM4C (TTP = Tandem Tudor domain + PHD); histone peptide array; arrays performed twice, n of 4
Outline: as §1

[15] = test system: KDM5A (1); details: GST-tagged KDM5A (1); histone peptide array; arrays performed twice, n of 4
Outline: as §1

[16] = test system: KDM5A (3); details: GST-tagged KDM5A (3); histone peptide array; arrays performed twice, n of 4
Outline: as §1

[17] = test system: KDM5B (1); details: GST-tagged KDM5B (1); histone peptide array; arrays performed twice, n of 4
Outline: as §1

[18] = test system: KDM5B (3); details: GST-tagged KDM5B (3); histone peptide array; arrays performed twice, n of 4
Outline: as §1

[19] = test system: KDM7A; details: GST-tagged KDM7A; histone peptide array; arrays performed twice, n of 4
Outline: as §1

[20] = test system: MLL5; details: GST-tagged MLL5; histone peptide array; arrays performed twice, n of 4
Outline: as §1

[21] = test system: MORC3 (CW); details: GST-tagged MORC3 (CW = CW-type Zn-finger); histone peptide array; arrays performed twice, n of 4
Outline: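 Steps: express and purify GST-tagged PHD reader; incubate 0.5 μM protein on a peptide microarray (293 histone peptides, single or combined PTMs) following an optimized protocol; average signal across 4 replicates.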

[22] = test system: PHF13; details: GST-tagged PHF13; histone peptide array; arrays performed twice, n of 4
Outline: as §1

[23] = test system: PHF21A; details: GST-tagged PHF21A; histone peptide array; arrays performed twice, n of 4
Outline: as §1

[24] = test system: PHF23; details: GST-tagged PHF23; histone peptide array; arrays performed twice, n of 4
Outline: as §1

[25] = test system: PHF2; details: GST-tagged PHF2; histone peptide array; arrays performed twice, n of 4
Outline: as §1

[26] = test system: PHF8; details: GST-tagged PHF8; histone peptide array; arrays performed twice, n of 4
Outline: as §1

[27] = test system: PHRF1 (RP); details: GST-tagged PHRF1 (RP); histone peptide array; arrays performed twice, n of 4
Outline: as §1

[28] = test system: RAG2; details: GST-tagged RAG2; histone peptide array; arrays performed twice, n of 4
Outline: as §1

[29] = test system: SP140L; details: GST-tagged SP140L; histone peptide array; arrays performed twice, n of 4
Outline: as §1

[30] = test system: TAF3; details: GST-tagged TAF3; histone peptide array; arrays performed twice, n of 4
Outline: as §1

[31] = test system: TRIM66 (PB); details: GST-tagged TRIM66 (PB = PHD + Bromodomain); histone peptide array; arrays performed twice, n of 4
Outline: as §1

Row | Substance | Array Heatmap signal, AIRE (PP) [1] | Array Heatmap signal, BAZ2B [2] | Array Heatmap signal, BPTF (PB) [3] | Array Heatmap signal, CHD4 (PPCC) [4] | Array Heatmap signal, CHD5 (PCC) [5] | Array Heatmap signal, CHD5 (PPCC) [6] | Array Heatmap signal, DIDO1 [7] | Array Heatmap signal, DPF2 (PPC2W2) [8] | Array Heatmap signal, ING1 [9] | Array Heatmap signal, ING2 [10] | Array Heatmap signal, ING3 [11] | Array Heatmap signal, ING4 [12] | Array Heatmap signal, ING5 [13] | Array Heatmap signal, KDM4C (TTP) [14] | Array Heatmap signal, KDM5A (1) [15] | Array Heatmap signal, KDM5A (3) [16] | Array Heatmap signal, KDM5B (1) [17] | Array Heatmap signal, KDM5B (3) [18] | Array Heatmap signal, KDM7A [19] | Array Heatmap signal, MLL5 [20] | other results
1 | H3Cit2 + K4ac + K9ac + K14ac + K18ac: H3 1-20 | 0.5046 | 0.5241 | 0.3441 | 0.5849 | 0.8259 | 0.5544 | 0.6333 | 0.6168 | 0.5011 | 0.5962 | 0.4982 | 0.466 | 0.342 | 0.4985 | 0.4761 | 0.3736 | 0.646 | 0.5221 | 0.3757 | 0.5262 | Array Heatmap signal, MORC3 (CW) [21]: 0.3458; Array Heatmap signal, PHF13 [22]: 0.6115; Array Heatmap signal, PHF21A [23]: 0.4553; Array Heatmap signal, PHF23 [24]: 0.5298; Array Heatmap signal, PHF2 [25]: 0.465; Array Heatmap signal, PHF8 [26]: 0.3508; Array Heatmap signal, PHRF1 (RP) [27]: 0.4027; Array Heatmap signal, RAG2 [28]: 0.246; Array Heatmap signal, SP140L [29]: 0.3325; Array Heatmap signal, TAF3 [30]: 0.2461; Array Heatmap signal, TRIM66 (PB) [31]: 0.5899
2 | H3Cit2 + K4me2: H3 1-20 | 0.3883 | 0.45 | 0.3387 | 0.5675 | 0.7759 | 0.5328 | 0.7273 | 0.6839 | 0.5902 | 0.6329 | 0.4571 | 0.4531 | 0.3412 | 0.4533 | 0.4439 | 0.6902 | 0.6545 | 0.6867 | 0.3325 | 0.5743 | Array Heatmap signal, MORC3 (CW) [21]: 0.7482; Array Heatmap signal, PHF13 [22]: 0.6272; Array Heatmap signal, PHF21A [23]: 0.4507; Array Heatmap signal, PHF23 [24]: 0.5864; Array Heatmap signal, PHF2 [25]: 0.7165; Array Heatmap signal, PHF8 [26]: 0.4758; Array Heatmap signal, PHRF1 (RP) [27]: 0.4884; Array Heatmap signal, RAG2 [28]: 0.6011; Array Heatmap signal, SP140L [29]: 0.366; Array Heatmap signal, TAF3 [30]: 0.4779; Array Heatmap signal, TRIM66 (PB) [31]: 0.6817
3 | H3Cit2 + K4me3 + K9ac + K14ac + K18ac: H3 1-20 | 0.3964 | 0.483 | 0.3451 | 0.6008 | 0.7154 | 0.5144 | 0.8494 | 0.6832 | 0.5664 | 0.6235 | 0.4771 | 0.4376 | 0.327 | 0.4327 | 0.4209 | 0.5236 | 0.5319 | 0.4827 | 0.3427 | 0.6331 | Array Heatmap signal, MORC3 (CW) [21]: 0.4875; Array Heatmap signal, PHF13 [22]: 0.5903; Array Heatmap signal, PHF21A [23]: 0.4881; Array Heatmap signal, PHF23 [24]: 0.5313; Array Heatmap signal, PHF2 [25]: 0.7451; Array Heatmap signal, PHF8 [26]: 0.4072; Array Heatmap signal, PHRF1 (RP) [27]: 0.4303; Array Heatmap signal, RAG2 [28]: 0.3489; Array Heatmap signal, SP140L [29]: 0.3551; Array Heatmap signal, TAF3 [30]: 0.287; Array Heatmap signal, TRIM66 (PB) [31]: 0.557
